Results published in patent EP1377579B1 (Aventis Pharmaceuticals Inc., priority 2000, dated 2002).

What was measured:
Jurkat = assay: In vitro proliferation assay (MTT), Jurkat; type: cell-based; settings: Homo sapiens, MTT assay, value (SD, n) where given, read-out: Jurkat Leuk. (IC50 µM)
In short: (§1)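 A570 of DMSO-solubilized formazan was the read-out. Seeding: 1000–2500 cells/well, overnight recovery. Compound exposure: 3 days. MTT incubation: 2–4 hr, 37 C. IC50 calculated from raw absorbance.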

NCI-H460 = assay: In vitro proliferation assay (MTT), NCI-H460; type: cell-based; settings: Homo sapiens, NCI-H460; MTT assay; value (SD, n) where given; read-out: H-460 Lung (IC50 µM)
In short: as §1

cdk1/cyclin B = cdk1/cyclin B (Homo sapiens, UniProt P06493); assay: Cyclin-dependent kinase assay, cdk1/cyclin B; settings: CDK1 IC50, nM, Histone H1, 10 µM ATP
PC-3 = assay: In vitro proliferation assay (MTT), PC-3; type: cell-based, human; settings: Homo sapiens, PC-3, MTT assay; value (SD, n) where given; read-out: PC-3 Prostate (IC50 µM)
In short: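 A570 readout of DMSO-solubilized MTT formazan after 3-day compound exposure; IC50 from raw data. Cells plated 1000–2500/well and recovered overnight before dosing.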

[1] = Red blood cell binding, mouse whole blood; type: in vitro ADME; settings: 30 minutes at 37°C, 500 ng/ml
Protocol: Compounds, including one positive control, are assessed for red blood cell (RBC) uptake, using a modified procedure based on the protocol reported in Sun, J.X.S., et al. High-performance liquid chromatographic analysis, plasma protein binding and red blood cell partitioning of phenprobamate. Biopharmaceutics and Drug Disposition, 8 (1987) 341-351.
Briefly, RBC uptake is evaluated by comparison of the levels in spiked plasma (n=3) and plasma isolated from spiked whole blood (n=3). Compounds are incubated with human and mouse whole blood, respectively, for 30 minutes at 37°C using a nominal concentration of 500 ng/ml. Following centrifugation, the plasma is removed and submitted for analysis. Each compound is also spiked into blank plasma at a nominal concentration of 500 ng/ml, and submitted for analysis. Levels in the two plasma samples (Cp' and Cp in the equation below) and the blood hematocrit are used to determine the red blood cell to plasma ratio (Crbc/Cp). (Crbc)/(Cp) = (Cpʹ)/(Cp•H)-((1-H))/(H) [formula] In equation 1, Cp' is the level of drug in the spiked "blank" plasma, Cp is the level of drug in the plasma of spiked whole blood, and H is the hematocrit. The hematocrit values are determined as 0.4 for human whole blood and 0.41 for mouse whole blood. The samples are analyzed with ESI LC/MS, using positive ion detection with an internal standard.
The red blood cell to plasma ratio is determined for each compound using equation 1. Tables 6 and 7 summarize the respective mean Crbc/Cp values and standard deviations for mouse and human whole blood, respectively, in descending order based on the red blood cell to plasma ratio, where"*" denotes Positive Control, and "ND" denotes Not Determined. MDL 108552 is included as a positive control for red blood cell uptake. Table 6. Red Blood Cell to Plasma Ratio for compounds in mouse whole blood

[2] = Red blood cell binding, human whole blood; type: in vitro ADME; settings: 30 minutes at 37°C, 500 ng/ml
HL-60 Human Leukemia = assay: HL-60 human leukemia xenograft in nude mice; type: in vivo; parameters: key: tumor volume = ½(a × b²) from caliper diameters, in mm^3; settings: Table 4
In short: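 Subcutaneous HL-60 (5 x10^5 cells) or PC-3 (5 x 10^6 cells) xenografts in nude mice; ip dosing qd 5x/wk from 50–100 mm^3 tumors, at MTD and 1/3 MTD, ~3 wk (HL-60) or ~5 wk (PC-3). Caliper tumor volume ½(a x b2) twice weekly; body weight weekly.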

cdk1/cyclin B, sequence (P06493 whole entry): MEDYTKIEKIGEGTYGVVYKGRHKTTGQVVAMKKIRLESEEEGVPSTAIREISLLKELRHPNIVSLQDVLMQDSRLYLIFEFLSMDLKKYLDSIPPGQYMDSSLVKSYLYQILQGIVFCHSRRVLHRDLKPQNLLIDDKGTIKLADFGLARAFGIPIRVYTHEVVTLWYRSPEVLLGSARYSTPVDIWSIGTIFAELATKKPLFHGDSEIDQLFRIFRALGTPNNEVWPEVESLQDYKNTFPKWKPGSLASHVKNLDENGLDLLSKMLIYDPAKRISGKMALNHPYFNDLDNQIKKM
cdk1/cyclin B, sequence (P14635 whole entry partner): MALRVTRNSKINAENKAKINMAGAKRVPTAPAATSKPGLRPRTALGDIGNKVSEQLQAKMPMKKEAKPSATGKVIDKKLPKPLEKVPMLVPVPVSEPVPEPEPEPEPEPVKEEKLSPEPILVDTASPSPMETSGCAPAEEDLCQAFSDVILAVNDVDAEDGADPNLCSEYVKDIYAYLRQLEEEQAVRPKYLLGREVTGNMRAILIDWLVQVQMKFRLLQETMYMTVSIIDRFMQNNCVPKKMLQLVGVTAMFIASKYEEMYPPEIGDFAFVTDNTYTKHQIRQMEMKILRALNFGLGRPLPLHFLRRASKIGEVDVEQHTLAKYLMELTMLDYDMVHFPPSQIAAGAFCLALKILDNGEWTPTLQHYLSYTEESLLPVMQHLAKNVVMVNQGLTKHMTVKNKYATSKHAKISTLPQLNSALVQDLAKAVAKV

IC50 (Jurkat) [µM]	IC50 (NCI-H460) [µM]	IC50 (cdk1/cyclin B) [nM]	IC50 (PC-3) [µM]	Mean Red Blood Cell to Plasma Ratio [1]	Mean Red Blood Cell to Plasma Ratio [2]	SMILES	HL60 Mean Vol. ± SD (HL-60 Human Leukemia; dose 1 mg/kg ip)	HL60 Mean Vol. ± SD (HL-60 Human Leukemia; dose 3 mg/kg ip)	HL60 Mean Vol. ± SD (HL-60 Human Leukemia; dose 10 mg/kg ip)
0.22	0.32	30	0.26	3.4	2.8	Cl.Cl.N[C@H]1CC[C@H](Nc2nc(NC3CCN(C(=O)Nc4ccc(C(F)(F)F)cc4)CC3)c3ncn(C4CCCC4)c3n2)CC1 [compound 149, trans-4-[2-(4-Amino-cyclohexylamino)-9-cyclopentyl-9H-purin-6-ylamino]-piperidine-1-carboxylic acid (4-trifluoromethyl-phenyl)-amide dihydrochloride]	4010 ± 2371	2505 ± 2104	
0.25	0.24	11	0.23	17.8	4.1	CCOC(=O)c1ccc(NC(=O)N2CCC(Nc3nc(N[C@H]4CC[C@H](N)CC4)nc4c3ncn4C3CCCC3)CC2)cc1.Cl.Cl [compound 154, trans-4-[(1-{4-[2-(4-Amino-cyclohexylamino)-9-cyclopentyl-9H-purin-6-ylamino]-piperidin-1-yl}-methanoyl)-amino]-benzoic acid ethyl ester dihydrochloride]		2641 ± 3024	2950 ± 1929
